Data: patent USRE46558E1, “Compositions and methods to treat diseases characterized by cellular proliferation and angiogenesis” (Paloma Pharmaceuticals, Inc., priority 2005, dated 2017)
Read-outs that look alike come from different tables or passages of the source.

Tests used:
[1] = system: human umbilical vein endothelial cells, HUVECs (proliferating); assay: HUVEC proliferation assay (proliferating, b-FGF or VEGF stimulated); type: cell-based; parameters: inhibition: dose or concentration left out as unconfirmed; conditions: for inhibition: Homo sapiens, proliferating HUVEC, 48 h, read-out: HUVECp % inhibition
From the text: (§1) Anti-tumor (anti-proliferative for cancer cells), anti-angiogenic activity (anti-proliferative for endothelial cells) measured in vitro as inhibition of proliferation binding to estrogen receptor alpha and beta HUVEC Proliferation. Inhibition of the proliferation of human umbilical vein endothelial cells, HUVECs, is shown as one measure of anti-angiogenic activity. HUVECS and the required media complements were purchased from Cascade Biologics (Portland, Oreg.) and the growth and maintenance of the cultures was as described by the manufacturer. The proliferation assay was carried out by seeding the HUVECs in 96-well plates at a density of 1,000 cells/well in complete medium. Following a 24 h plating period, the cells were starved for 24 h in 0.5% serum before being treated with SG (“Signal Gene” now “Palomid”) angiogenic inhibitors in the presence of 10 ng/ml b-FGF or dosing ranging presence of either b-FGF or VEGF in complete medium. After 48 h, cell number was determined using a calorimetric method as described by the supplier (Promega Corp., Madison, Wis.). The results were expressed as the percentage of the maximal b-FGF or VEGF response in the absence of angiogenic inhibitors. Non-proliferating endothelial cells were assayed by growing HUVECs to quiescence in 96-well plates and treating with angiogenic inhibitors for 48 h. Initially, 5,000 cells/well were seeded and confluence was achieved the next day. The plates were incubated another 24 h to ensure growth arrest before treatment with angiogenic inhibitors. Cell number was determined as outlined above.

HUVEC quiescent = assay: Non-proliferating (quiescent) HUVEC assay; type: cell-based; parameters: dose or concentration left out as unconfirmed; conditions: Homo sapiens, 48 h, read-out: HUVECq % inhibition
From the text: as §1

[2] = system: colon carcinoma cell line, HCT-116; assay: Cancer cell line proliferation, colon; type: cell-based; parameters: dose or concentration left out as unconfirmed; conditions: Homo sapiens
From the text: (§2) Cancer Cell Lines. Measurement of the inhibition of tumor cell growth is one measure of anti-cancer activity. Two human cancer cell lines were used to assess the effects of SG angiogenic inhibitors on the proliferation of these cells. The cell lines were MCF-7 breast cancer cells and the colon carcinoma cell line, HCT-116. All cell lines were obtained from Americans Type Tissue Culture (Manassas, Va.) and maintained in their respective media as described by the supplier. The proliferation studies were carried out essentially as described for the proliferating endothelial cells.

[3] = system: MCF-7 breast cancer cells; assay: Cancer cell line proliferation, breast; type: cell-based; parameters: dose or concentration left out as unconfirmed; conditions: Homo sapiens, MCF7
From the text: as §2

[4] = molecular target: T1, human estrogen receptor beta (Homo sapiens, UniProt Q92731); assay: ER binding assay, [3H]estradiol competition, ERb; conditions: 0.5 nM [3H]estradiol, 4° C. overnight; na = no activity
T1 construct: made in house; host or cells: rabbit reticulocyte lysate, coupled in vitro transcription-translation (Promega TNT kit)
T1 sequence (Q92731 whole entry): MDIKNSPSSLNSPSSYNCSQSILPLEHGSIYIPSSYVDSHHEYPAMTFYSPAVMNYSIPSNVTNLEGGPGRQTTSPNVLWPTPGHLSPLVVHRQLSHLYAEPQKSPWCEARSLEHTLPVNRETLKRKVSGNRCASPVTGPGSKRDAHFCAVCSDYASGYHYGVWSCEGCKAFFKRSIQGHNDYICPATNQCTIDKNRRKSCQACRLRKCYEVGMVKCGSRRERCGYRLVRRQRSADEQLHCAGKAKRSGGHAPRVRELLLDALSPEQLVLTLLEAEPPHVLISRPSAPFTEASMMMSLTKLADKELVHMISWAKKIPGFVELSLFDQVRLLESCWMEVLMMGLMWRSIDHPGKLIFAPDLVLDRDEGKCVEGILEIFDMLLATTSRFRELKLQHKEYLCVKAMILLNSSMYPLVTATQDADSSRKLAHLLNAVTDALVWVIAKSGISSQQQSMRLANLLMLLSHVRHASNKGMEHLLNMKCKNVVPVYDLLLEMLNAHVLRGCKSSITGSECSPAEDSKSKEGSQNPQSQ
From the text: ER Binding Assay. Derivatives which bind and transduce a signal through estrogen receptors would not be considered a positive activity as such an activity could enhance cancer growth as well as induce angiogenesis. Derivatives which either have little or no binding to estrogen receptors (“ER”) would be one desired activity. […] Human cDNAs encoding ERa and ERb were used as templates to express receptor proteins in vitro. The proteins were produced with rabbit reticulocyte lysates as supplied by Promega (TNT kit) that couples transcription and translation in a single reaction. The amount of template used in each reaction was determined empirically and expression was monitored in parallel reactions where [35S]methionine was incorporated into the receptor followed by gel electrophoresis and exposure to film. Binding reactions were carried out in […] final volumes in TEG buffer (10 mM tris, pH 7.5, 1.5 mM EDTA, 10% glycerol). […] The reactions were incubated at 4° C. overnight and bound E2 was quantified by adding […] dextran-coated charcoal. […] The maximum binding was determined by competing bound E2 with only the ethanol vehicle. […] Values for percent inhibition were calculated based on the maximal E2 binding. The data were plotted and Ki values calculated using the Prism Software. […]

[5] = % of maximal b-FGF or VEGF response

Row | SMILES | inhibition [1, 5] | inhibition (HUVEC quiescent) | inhibition [2] | inhibition [3] | inhibition of bFGF-stimulated endothelial cell proliferation ([1]; FIG. 1A, bFGF-stimulated) | inhibition of VEGF-stimulated endothelial cell proliferation ([1]; FIG. 1B, VEGF-stimulated) | inhibition [1] | hERb % binding [4]
1 | COc1cc2c(cc1OCc1ccccc1)oc(=O)c1cc(C(C)O)ccc12 (stereo not shown) [Palomid 393] | 71% | 21% | 26% | 11% |  |  |  | 
2 | COc1ccc(COc2cc3oc(=O)c4cc(C(C)O)ccc4c3cc2OC)cc1 (stereo not shown) [Palomid 529] | 113% | 31% | 20% | 32% | inhibition | inhibition | 65% | 
3 | COc1ccccc1COc1cc2oc(=O)c3cc(C(C)O)ccc3c2cc1OC (stereo not shown) [Palomid 545] | 100% | 22% | 21% | 17% |  |  | 32% | 
4 | COc1cc(COc2cc3oc(=O)c4cc(C(C)=O)ccc4c3cc2OC)cc(OC)c1 [Palomid 546] | 100% | 23% |  | 13% |  |  | 18% | 
5 | COc1cc(COc2cc3oc(=O)c4cc(C(C)O)ccc4c3cc2OC)cc(OC)c1 (stereo not shown) [Palomid 547] | 106% | 25% | 17% | 35% |  |  | 42% | 
6 | CCc1ccc2c(c1)c(=O)oc1cc(OCc3ccc(OC)cc3)c(OC)cc12 [Palomid 550] | 77% | 14% | < 10% | 28% |  |  |  | 
7 | CCc1ccc2c(c1)c(=O)oc1cc(OCc3ccccc3OC)c(OC)cc12 [Palomid 551] | 62% |  |  | 25% |  |  |  | 
8 | COc1cc2c(cc1OCc1ccc(C)cc1)oc(=O)c1cc(C(C)=O)ccc12 [Palomid 559] | 96% | 35% |  | 17% |  |  | 72% | 
9 | CCc1ccc2c(c1)c(=O)oc1cc(OCc3ccc(Br)cc3)c(OC)cc12 [Palomid 560] | 53% |  |  |  |  |  |  | 
10 | COc1cc2c(cc1OCCc1ccccc1)oc(=O)c1cc(C(C)=O)ccc12 [Palomid 568] | 78% | 14% |  | < 10% |  |  |  | 37%
11 | CCc1ccc2c(c1)c(=O)oc1cc(OCc3ccc(C(=O)OC)cc3)c(OC)cc12 [Palomid 573] | 145% | < 10% | < 10% |  |  |  |  | 
12 | CCc1ccc2c(c1)c(=O)oc1cc(OCc3ccc(C(=O)c4ccccc4)cc3)c(OC)cc12 [Palomid 574] | 74% | 29% | 24% |  |  |  | 13% | 
13 | COc1cc2c(cc1OCc1ccc(C)cc1)oc(=O)c1cc(C(C)O)ccc12 (stereo not shown) [Palomid 575] | 104% | 33% | 10% | 31% |  |  | 41% | 
